# Results as given in PMC2719696, “Kinetics and Cellular Site of Glycolipid Loading Control the Outcome of Natural Killer T Cell Activation” (Immunity, 2009).
# Biological target: T1, mCD1d (Mus musculus, UniProt P11609)
# T1 construct: host or cells: JAWS II (C57BL/6.Trp53-/- derived dendritic cell line)
# T1 sequence (P11609 22-336): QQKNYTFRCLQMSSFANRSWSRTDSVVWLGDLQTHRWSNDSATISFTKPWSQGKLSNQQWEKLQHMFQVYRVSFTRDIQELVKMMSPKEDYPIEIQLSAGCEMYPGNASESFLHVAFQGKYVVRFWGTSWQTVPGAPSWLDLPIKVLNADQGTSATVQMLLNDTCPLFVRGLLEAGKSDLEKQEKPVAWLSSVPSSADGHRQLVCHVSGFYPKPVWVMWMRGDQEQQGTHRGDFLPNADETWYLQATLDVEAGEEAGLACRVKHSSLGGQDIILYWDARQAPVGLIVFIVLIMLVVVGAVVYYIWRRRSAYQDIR
# T1 sequence (P01887 21-119 partner): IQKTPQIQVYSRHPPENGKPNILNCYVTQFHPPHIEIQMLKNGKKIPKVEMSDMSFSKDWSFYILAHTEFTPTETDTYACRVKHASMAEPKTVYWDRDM
# Experiment: mAb L363 surface staining of JAWS II cells by flow cytometry (kinetics and pulse-chase)
# Format: cell-based
# Details: for L363 surface staining over time: JAWS II cells, 250 nM glycolipid, 0.5, 4 and 18 hr; for formation of mCD1d-αGalCer surface complexes in pulse-chase analysis: JAWS II cells pulsed 500 nM for 1.5 hr, 8 hr chase
# Protocol: We studied this possibility directly by using a monoclonal antibody (L363) that specifically recognizes complexes of αGalCer bound to mCD1d ([Yu et al., 2007]). Mouse splenocytes were cultured with either αGalCer-C26:0 or representative Th2 cell-type cytokine-biasing analogs, and L363 staining was assessed on various cell types (Figure 3A). […] This was investigated further with more detailed kinetic studies in which immortalized mouse DC line JAWS II was cultured with each glycolipid and assessed for L363 surface staining at 0.5, 4, and 18 hr (Figure 3B). There was a striking correlation between rapid kinetics of glycolipid association with mCD1d and the ability to induce a Th2 cell-type cytokine response. […] In contrast, most analogs inducing Th2 cell-type cytokine responses gave strong L363 staining by 0.5 hr, which increased modestly or not at all with longer incubation. […] Experiments using responses of iNKT cells to analyze the kinetics of cell-surface appearance gave analogous results (Figure S5).
# Figure 3 Direct Analysis of Presentation of αGalCer Analogs with Complex-Specific mAb Staining (A) Mouse splenocytes cultured with either vehicle only (0.02% DMSO) or with the indicated αGalCer analogs (100 nM) were harvested after 1 hr or 19 hr of incubation and stained with mAb L363 or anti-CD1d mAb 1B1 and with mAbs specific for CD11c, CD19, and F4/80 (Figure S4). Filled histograms show L363 staining of cells cultured with vehicle only, and open histograms show cells cultured with indicated glycolipids. At the left, the total CD1d staining with mAb 1B1 (open histograms) compared to isotype control mAb (filled histograms) are shown on cells cultured for 19 hr with DMSO only. (B) JAWS II cells were incubated with glycolipids (250 nM) for various times ranging from 0.5–18 hr as indicated, stained with mAb L363, and analyzed by flow cytometry. Dashed line histograms show L363 staining of cells incubated with medium only, and bold histograms show L363 staining of cells incubated with αGalCer analogs. (C) JAWS II cells were pulsed with indicated αGalCer analogs (500 nM) for 1.5 hr, washed extensively, and recultured at 37°C for various chase times. Upon harvesting, cells were placed on ice and subsequently stained with mAb L363 for flow cytometry analysis. Histogram overlays show L363 staining of cells pulsed initially with vehicle only (DMSO, dashed histograms) or with αGalCer analog (bold histograms). […] All results shown (A, B, and C) were representative of at least two independent experiments.
# Recombinant CD1d proteins were produced and assembled into tetramers for staining as previously described ([Forestier et al., 2007]). To obtain optimally loaded tetramers for iNKT cell staining, we loaded mCD1d with αGalCer-C26:0 and -C24:0 in the presence of 0.05% Triton X-100 (Sigma-Aldrich) and loaded mCD1d with other glycolipids without Triton X-100. For loading of hCD1d, 0.05% Triton X-100 was included with αGalCer-C26:0, -C24:0, and -C20:4, whereas other glycolipids were loaded without Triton X-100. For surface staining of αGalCer/mCD1d complexes, murine splenocytes or JAWS II cells were incubated with 250 nM glycolipids for various times and then 0.2 μg/ml mAb L363 (Alexa Fluor 647 or biotin conjugated) was added directly to the culture for an additional 30 min at RT. In some experiments, additional fluorochrome-conjugated antibodies specific for leukocyte subpopulations were added for the last 15 min of incubation. All samples were analyzed with the FACSCalibur flow cytometer (BD Biosciences).
Compound,L363 surface staining over time,formation of mCD1d-αGalCer surface complexes in pulse-chase analysis
CCCCCCCCCCCCCCCCCCCCCCCC(=O)NC(COC1OC(CO)C(O)C(O)C1O)C(O)C(O)CCCCC (stereo not drawn) [OCH],very weak L363 reactivity,
CCCCCCCCCCCCCCC(O)C(O)C(COC1OC(CO)C(O)C(O)C1O)NC(=O)CCCCCCCCC (stereo not drawn) [αGalCer-C10:0],,the complexes formed rapidly and began declining immediately during the chase period
CCCCCC=CCC=CCCCCCCCCCC(=O)NC(COC1OC(CO)C(O)C(O)C1O)C(O)C(O)CCCCCCCCCCCCCC (stereo not drawn) [αGalCer-C20:2],,the complexes formed rapidly and began declining immediately during the chase period
CCCCCCCCCCCCCCCCCCCCCCCC(=O)NC(COC1OC(CO)C(O)C(O)C1O)C(O)C(O)CCCCCCCCCCCCCC (stereo not drawn) [αGalCer-C24:0],strong L363 staining was detected only at 18 hr,
"CCCCCCCCCCCCCCCCCCCCCCCCCC(=O)NC(COC1OC(CO)C(O)C(O)C1O)C(O)C(O)CCCCCCCCCCCCCC (stereo not drawn) [αGalCer-C26:0, reference compound]",strong L363 staining was detected only at 18 hr,formed slowly
